Laboratory results as given in publication PMC7702301 (Biochemical Journal, 2020).

Assays:
RIPK1 = details: phosphorylation mimicked by a glutamate residue; cited from earlier work
MerTK [1] = molecular target: T1, MerTK (Homo sapiens, UniProt Q12866); experiment: Surface plasmon resonance, MerTK; assay type: binding; details: read-out: residence times
T1 sequence (Q12866 528-999): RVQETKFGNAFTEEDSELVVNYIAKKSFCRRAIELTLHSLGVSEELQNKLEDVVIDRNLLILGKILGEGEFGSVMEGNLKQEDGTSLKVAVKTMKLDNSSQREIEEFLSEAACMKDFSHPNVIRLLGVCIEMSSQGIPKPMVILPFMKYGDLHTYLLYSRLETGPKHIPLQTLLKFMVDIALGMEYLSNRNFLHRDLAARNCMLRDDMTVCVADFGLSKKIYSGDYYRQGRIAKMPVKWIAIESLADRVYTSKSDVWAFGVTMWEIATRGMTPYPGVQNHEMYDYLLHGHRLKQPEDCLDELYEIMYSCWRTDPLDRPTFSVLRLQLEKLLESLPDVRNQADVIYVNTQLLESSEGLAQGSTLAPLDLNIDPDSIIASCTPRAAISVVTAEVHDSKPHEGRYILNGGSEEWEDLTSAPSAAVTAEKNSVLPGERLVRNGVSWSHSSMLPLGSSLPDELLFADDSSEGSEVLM

MerTK [2] = details: cited from earlier work
dephosphorylated MerTK = molecular target: T2, dephosphorylated MerTK (Homo sapiens, UniProt Q12866); experiment: Surface plasmon resonance, dephosphorylated MerTK; assay type: binding
T2 sequence (Q12866 528-999): T1 sequence (Q12866 528-999)

In the case of `CN1C(=O)C(Cc2c[nH]c3ccccc23)NC1=S` (stereo not shown) [Nec-1], the “drop of affinity for RIPK1 upon phosphorylation of Ser161” value (RIPK1) is listed as ~10 fold.
For `CCc1nc(C(N)=O)c(Nc2ccc(N3CCC(N4CCN(C)CC4)CC3)c(OC)c2)nc1NC1CCOCC1` [gilteritinib], the residence time (MerTK [1]) is given as < 1 min and the “off-target activity against MerTK” value (MerTK [2]) is given as “double-digit nanomolar”.
For `Cc1ccc(C(=O)Nc2ccc(Oc3cc4cnn(C)c4cc3-c3cn[nH]c3)c(F)c2)c(=O)n1-c1ccc(F)cc1` [merestinib], the residence time (dephosphorylated MerTK) was > 120 min.
